One may read the Kd as the concentration at which binding is half-saturated.

For the experiment, the target named is rSe-DSP1 (Se-DSP1; dorsal switch protein 1). Description: thermal shift assay (Protein Thermal Shift dye), melting temperature vs ligand concentration. More on the design: species or system Spodoptera exigua. The settings on record: 500 ng protein; ligand 0-8 uM; compounds dissolved in DMSO.

With `O=C(O)c1ccccc1O` [salicylic acid], the Kd was found to be 0.238 ± 0.04 µM.
The same measure for `CCOc1cc(O)ccc1OC` [3-ethoxy-4-methoxyphenol]: 0.119 ± 0.02 µM.

These data come from PMC8023496, “Immune mediation of HMG-like DSP1 via Toll-Spätzle pathway and its specific inhibition by salicylic acid analogs” (PLoS Pathogens, 2021).
